Where two headings read alike, the source gives them in different places.
What was measured:
[1] = test system: osteoclast differentiation; assay: Inhibitory effects on osteoclast differentiation (co-culture of bone marrow cells with osteoblast, TRAP staining); format: cell-based, mice; conditions: co-culture of bone marrow cells and osteoblast, 7 days, TRAP-positive osteoclasts versus controls; for inhibition at 1 µM: Mus musculus, Osteoclast, 168 h, read-out: % inhibitory activity on osteoclastogenesis
Procedure, shortened: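 Bone marrow cells from 6–8-week male ddY mice co-cultured with neonatal ICR mouse calvarial osteoblasts in α-MEM/FBS with dexamethasone (10^−7M) and vitamin D3 (10^−8M) for 7 days, compound and medium renewed every 2–3 days. TRAP-positive cells with ≥3 nuclei counted; inhibition given as percent of control.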

ovariectomized ddY mouse = assay: Therapeutic effect in the ovariectomized osteoporetic mouse model (trabecular bone volume of the femur); format: in vivo, ddY mice; conditions: 50 mg/kg/day oral gavage for 4 weeks from 4 weeks after ovariectomy, salts (methansulfonic acid or HCl); for change in vivo at 50 mg/kg: Mus musculus, 672 h, read-out: Changes on TBV (% changes vs vehicle control)
Experimental: The therapeutic effects of each benzamidine derivates were evaluated on the ovariectomized ddY mouse. Benzamidine derivates were dosed from 4 weeks after operation for 4 weeks and the changes on the trabecular bone volume (TBV) of the femur were observed via histomorphometry.
Female ddY mice (6-wk old upon receipt, SLC, Japan) were used after acclimatization for 7 days. Animals were allocated 5 per polycarbonate cage in a temperature (20-25° C.) and humidity (30-35%) controlled room. Light:dark cycle was 12 hr:12 hr and feed (Samyang, Korea) and water were supplied free to access.
Salts of benzamidine derivates (Methansulfonic acid or HCl) were used for the test substances of this invention. Test substances are dissolved and/or suspended in injectable distilled water and administered at a dosage volume of 10 ml/kg by oral gavage. All test substances are dosed from 4 weeks after operation for 4 weeks at 50 mg/kg/day.
To induce estrogen-deficient osteoporosis, bilateral ovaries are removed and then closed by routine methods. Operation was conduct under Ketamine hydrochloride and xylazine hydrochloride anesthesia.
The left femur of each mouse were separated at sacrifice, and fixed in 10% neutral buffered formalin (NBF), then decalcified in decalcifying solution (24.4% formic acid, and 0.5N sodium hydroxide) for 5 days (mixed decalcifying solution was exchanges once a day for 5 days). After the dexalcification, the femur was embedded in paraffin, sectioned (3˜4 μm) and stained with hematoxylin-eosin stain.
TBV was calculated using automated image analysis (analySIS Image Processing; SIS, Germany) under magnification of ×200 in the uniform area of trochlea epiphyseal regions (growth plate regions were excluded) of prepared histological specimens. TBV was calculated as percentage (%) levels.
The changes of TBV compared to that of vehicle control are calculated as following Equation 1 to help the understanding of the efficacy of test substances. Percentage changes=[((TBV of a−TBV of b)/TBV of b)×100] Equation 1

[2] = test system: mouse models of ovalbumin-induced asthma; assay: Therapeutic effect in mouse model of asthma induced with ovalbumin (lung weight, total leukocytes in blood and BALF); format: in vivo, C57BL/6 mice; conditions: for Changes on the lung weight, Absolute: 200 mg/kg oral once a day from sensitization, vehicle control 0.134 ± 0.012, sham 0.110 ± 0.009; for Changes on the lung weight, Relative (%) / Total leukocytes in peripheral blood (×10^3/1 mm^3) / Total leukocytes in BALF (×10^5/1 ml): 200 mg/kg oral once a day; for Changes on the lung weight, Relative (%): % of body weight, vehicle control 0.780 ± 0.103, sham 0.694 ± 0.049; for Total leukocytes in peripheral blood (×10^3/1 mm^3): vehicle control 14.49 ± 0.88, sham 10.27 ± 0.93; for Total leukocytes in BALF (×10^5/1 ml): vehicle control 75.68 ± 4.67, sham 51.75 ± 2.15
Experimental: The benzamidine compounds were assated for therapeutic effect on allergic inflammation in mouse models of ovalbumin-induced asthma. Starting on the day of immunization the benzamidine compounds were dosed for 17 consecutive days. The experimental animals were re-exposed to ovalbumin 14 days after the sensitization and then sacrificed 3 days after the re-exposure. Changes in lung weight, cellular components of peripheral blood and bronchoalveolar lavage fluid, and lung histopathology were observed.
A total of 110 female C57BL/6 mice (7-week-old, SLC, Japan) were adapted to a laboratory environment for 6 days before being used in earnest experiments. While being housed at a densirt of five in a plastic cage, the experimental animals were breed in a breeding room with controlled temperature (20-25° C.) and humidity (30-35%). Under light-dark cycles of 12 hours, mice were allowed to have free access to feedstuff and tap water. While asthma was induced in 100 mice by ovalbumin, 10 mice were used as a non-treated group.
200 mg of benzamidine compounds (Methansulfonic acid or Hydrochloride) were completely dissolved in 5 ml of sterilized distilled water. The benzamidine compound in the solutions was orally administered at doses of 200 mg per kg of body weight once a day from the day of the sensitization with ovalbumin. The control group was administered with equal volumes of sterilized distilled water in the same manner.
A solution of 200 μg of ovalbumin (Grade VI; Sigma, st. Louis, Mo., USA) and 180 mg of aluminium hydroxide (Al(OH)3, dried powder gel; Aldrich, Milwaukee, USA) in 4 ml of physiological saline was allowed to stand at 4° C. overnight and was administered to the experimental animals (200 μl, abdominal injection) for sensitization. As for the non-treated group, a solution of only aluminium hydroxide in saline was injected. 15 days after sensitization, a 1.5% ovalbumin solution was sprayed in air using a nebulizer, followed by exposing the experimental animals to the spray for 10 min to induce asthma therein. The non-treated group was exposed only to saline in the same manner. All the experimental animals were sacrificed 3 days after the exposure.
On the final day of experiment, the lungs were separated form adjacent organs. The removed lungs were weight among individual animals, the relative weight of the lungs was calculated as a percentage of body weight using the following Equation 3. Relative weight of Lung(%)=(Absolute lung weight/Body weight)×100 Equation 3
On the final day of experiment, all the experimental animals were etherized and underwent laparotomy to expose the abdominal vena cava, from which 1 ml of blood was the taken. Using a hemocytometer, a blood sample was measured for total leukocyte counts in a ×10^3/1 mm^3 units.
On the final day of experiment, secretions present in bronchi and alveola were examined for cyrological constitution. After veing etherized, the experimental animals were operated to open the cervical region and the thorax. The jugular vein was allowed to bleed, followed by endotracheal intubation. 3 ml of phosphate buffered saline was injected twice through the tube and the thorax was massaged for 30 sec to obtain cell suspension from the lungs. Using a hemocytometer, a […] was measured for total leukocyte counts in a ×10^5/1 ml units.

| SMILES | inhibition at 1 µM ([1]; 1 μm) [%] | melting point [°C] | inhibition at 1 µM ([1]; 1 m) [%] | change in vivo at 50 mg/kg (ovariectomized ddY mouse) [%] | further results |
| --- | --- | --- | --- | --- | --- |
| Cc1nc(-c2ccc(OCCCCCOc3ccc(C(=N)NO)cc3)cc2)cs1 [Example 3, N-hydroxy-4-(5-[4-(2-methyl-1,3-thiazol-4-yl)phenoxy]pentoxy)-benzamidine] | 41.4 | 139 to 140 | – | – | – |
| CC(C)c1nc(-c2ccc(OCCCCCOc3ccc(C(=N)NO)cc3)cc2)cs1 [Example 5, N-hydroxy-4-(5-[4-(2-isopropyl-1,3-thiazol-4-yl)phenoxy]pentoxy)-benzamidine] | 87.5 | 95 to 129 | – | – | – |
| N=C(NO)c1ccc(OCCCCCOc2ccc(-c3csc(-c4ccccc4)n3)cc2)cc1 [Example 6, N-hydroxy-4-(5-[4-(2-phenyl-1,3-thiazol-4-yl)phenoxy]pentoxy)-benzamidine] | – | 133 to 141 | – | – | – |
| Cc1nc(-c2ccc(OCCCCCOc3ccc(C(=N)NO)cc3)cc2)c(C)s1 [Example 10, N-hydroxy-4-(5-[4-(2,5-dimethyl-1,3-thiazol-4-yl)phenoxy]pentoxy)-benzamidine] | 1.8 | 128 to 133 | – | – | – |
| Cc1sc(-c2ccccc2)nc1-c1ccc(OCCCCCOc2ccc(C(=N)NO)cc2)cc1 [Example 12, N-hydroxy-4-(5-[4-(5-methyl-2-phenyl-1,3-thiazol-4-yl)phenoxy]pentoxy)-benzamidine] | – | 124 to 130 | – | – | – |
| CCc1nc(-c2ccc(OCCCCCOc3ccc(C(=N)NO)cc3)cc2)c(CC)s1 [Example 18, N-hydroxy-4-(5-[4-(2,5-diethyl-1,3-thiazol-4-yl)phenoxy]pentoxy)-benzamidine] | 24.8 | 121 to 127 | – | – | – |
| CCc1sc(-c2ccccc2)nc1-c1ccc(OCCCCCOc2ccc(C(=N)NO)cc2)cc1 [Example 20, N-hydroxy-4-(5-[4-(5-ethyl-2-phenyl-1,3-thiazol-4-yl)phenoxy]pentoxy)-benzamidine] | 35.6 | 83 to 86 | – | – | – |
| CCCCc1sc(C)nc1-c1ccc(OCCCCCOc2ccc(C(=N)NO)cc2)cc1 [Example 30, N-hydroxy-4-(5-[4-(5-butyl-2-methyl-1,3-thiazol-4-yl)phenoxy]pentoxy)-benzamidine] | 47.7 | 138 to 140 | – | – | – |
| CCCCc1sc(CC)nc1-c1ccc(OCCCCCOc2ccc(C(=N)NO)cc2)cc1 [Example 31, N-hydroxy-4-(5-[4-(5-butyl-2-ethyl-1,3-thiazol-4-yl)phenoxy]pentoxy)-benzamidine] | 35.6 | 80 to 84 | – | – | – |
| CCCCc1sc(-c2cccnc2)nc1-c1ccc(OCCCCCOc2ccc(C(=N)NO)cc2)cc1 [Example 34, N-hydroxy-4-(5-[4-(5-butyl-2-pyridin-3-yl-1,3-thiazol-4-yl)phenoxy]pentoxy)-benzamidine] | 28.7 | 107 to 118 | – | – | – |
| N=C(NO)c1ccc(OCCCCCOc2ccc(-c3nc(N4CCCCC4)sc3CC3CCCC3)cc2)cc1 [Example 167, N-hydroxy-4-(5-[4-(5-cyclopentylmethyl-2-piperdino-1,3-thiazol-4-yl)phenoxy]pentoxy)-benzamidine] | – | – | – | – | % inhibitory activity on osteoclastogenesis [1]: 99.0%; Changes on TBV (% changes vs vehicle control) (ovariectomized ddY mouse): 55.2% |
| N=C(NO)c1ccc(OCCCCCOc2ccc(-c3nc(N4CCOCC4)sc3CC3CCCC3)cc2)cc1 [Example 168, N-hydroxy-4-(5-[4-(5-cyclopentylmethyl-2-morpholino-1,3-thiazol-4-yl)phenoxy]pentoxy)-benzamidine] | – | – | 87 | 56.6 | – |
| CC(C)c1sc(N2CCOCC2)nc1-c1ccc(OCCCCCOc2ccc(C(=N)NO)cc2)cc1 [Example 169, N-hydroxy-4-(5-[4-(5-isopropyl-2-morpholino-1,3-thiazol-4-yl)phenoxy]pentoxy)-benzamidine] | – | – | 83.3 | 186 | Changes on the lung weight, Absolute [2]: 0.113 ± 0.003 g; Changes on the lung weight, Relative (%) [2]: 0.696 ± 0.032 %; Total leukocytes in peripheral blood (×10^3/1 mm^3) [2]: 13.20 ± 2.22 ×10^3/1 mm^3; Total leukocytes in BALF (×10^5/1 ml) [2]: 72.25 ± 7.95 ×10^5/1 ml |
| Cc1nc(-c2ccc(OCCCCCNc3ccc(C(=N)NO)cc3)cc2)c(C(C)C)s1 [Example 177, N-hydroxy-4-(5-[4-(5-isopropyl-2-methyl-1,3-thiazol-4-yl)phenoxy]-pentylamino)-benzamidine] | – | – | 96.1 | 88.7 | – |
| Cc1nc(-c2ccc(OCC=CCOc3ccc(C(=N)NO)cc3)cc2)c(C(C)C)s1 [Example 184, N-hydroxy-4-(4-[4-(5-isopropyl-2-methyl-1,3-thiazol-4-yl)-phenoxy]-2-butenyloxy)-benzamidine] | – | – | 74.5 | 147 | – |
| Cc1nc(-c2ccc(OCc3ccc(COc4ccc(C(=N)NO)cc4)cc3)cc2)c(C(C)C)s1 [Example 185, N-hydroxy-4-(4-[4-(5-isopropyl-2-methyl-1,3-thiazol-4-yl)-phenoxymethyl]-benzyloxy)-benzamidine] | – | – | 89.4 | 152 | Changes on the lung weight, Absolute [2]: 0.116 ± 0.003 g; Changes on the lung weight, Relative (%) [2]: 0.720 ± 0.061%; Total leukocytes in peripheral blood (×10^3/1 mm^3) [2]: 11.90 ± 1.45 # ×10^3/1 mm^3; Total leukocytes in BALF (×10^5/1 ml) [2]: 66.47 ± 7.41 # ×10^5/1 ml |
| Cc1nc(-c2ccc(OCCCCCOc3ccc(C(=N)NO)c(F)c3)cc2)c(C(C)C)s1 [Example 187, N-hydroxy-2-fluoro-4-(5-[4-(5-isopropyl-2-methyl-1,3-thiazol-4-yl)-phenoxy]-pentoxy)-benzamidine] | – | – | 92.5 | 117 | – |
| Cc1nc(-c2ccc(OCCCCCOc3ccc(C(=N)NO)c(O)c3)cc2)c(C(C)C)s1 [Example 188, 2,N-dihydroxy-4-(5-[4-(5-isopropyl-2-methyl-1,3-thiazol-4-yl)-phenoxy]-pentoxy)-benzamidine] | – | – | 82.6 | 92 | – |
